Results reported in patent US12655116B2, “Substituted isophthalic acid diamides” (Bayer Aktiengesellschaft, priority 2020, dated 2026).

Experiments:
MATIN [1] = test: Pre-emergence herbicidal action against MATIN; format: in vivo, Matricaria inodora; conditions: Tripleurospermum inodorum, 504 h; for pest or weed control at 20 g/ha: dosage 20 g/ha; for pest or weed control at 80 g/ha: dosage 80 g/ha
Method in brief: (§1)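 Herbicidal effect was assessed 3 weeks after treatment by visual comparison with untreated controls, 100% denoting dead plants. Aqueous WP or EC preparations had been applied at 600 to 800 l/ha with 0.2% wetting agent to the soil covering freshly sown seeds.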

SETVI [2] = test: Post-emergence herbicidal action against SETVI; format: in vivo, Setaria viridis; conditions: Setaria viridis, 504 h; for pest or weed control at 5 g/ha: dosage 5 g/ha; for pest or weed control at 20 g/ha: dosage 20 g/ha
Method in brief: (§2)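 Herbicidal effect was scored visually in percent after about 3 weeks in the greenhouse. Plants had been raised in sandy loam and treated post-emergence at the one-leaf stage with formulated compound at 600 to 800 l/ha water plus 0.2% wetting agent.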

ECHCG [3] = test: Pre-emergence herbicidal action against ECHCG; format: in vivo, Echinochloa crus-galli; conditions: Echinochloa crus-galli, 504 h, 80 g/ha
Method in brief: as §1

ABUTH [4] = test: Pre-emergence herbicidal action against ABUTH; format: in vivo, Abutilon theophrasti; conditions: Abutilon theophrasti, 504 h; for pest or weed control at 80 g/ha: scored visually after 3 weeks vs untreated controls (100% = plants have died, 0% = like control plants); for pest or weed control at 20 g/ha: dosage 20 g/ha, scored visually after 3 weeks vs untreated controls, 100% = plants have died, 0% = like control plants, read-out: Pre-emergence action against ABUTH (herbicidal activity in percent)
Method in brief: as §1

AMARE [5] = test: Post-emergence herbicidal action against AMARE; format: in vivo, Amaranthus retroflexus; conditions: Amaranthus retroflexus, 504 h, 20 g/ha, visual assessment about 3 weeks after treatment, 100% = plants have died, 0% = like control plants
Method in brief: as §2

ALOMY [6] = test: Post-emergence herbicidal action against ALOMY; format: in vivo, Alopecurus myosuroides; conditions: Alopecurus myosuroides, 504 h, dosage 20 g/ha, visual assessment about 3 weeks after treatment vs untreated controls
Method in brief: as §2

VIOTR [7] = test: Pre-emergence herbicidal action against VIOTR; format: in vivo, Viola tricolor; conditions: Viola tricolor, 504 h; for pest or weed control at 80 g/ha: dosage 80 g/ha
Method in brief: as §1

PHBPU [8] = test: Pre-emergence herbicidal action against PHBPU; format: in vivo, Pharbitis purpurea; conditions: Ipomoea purpurea, 504 h, dosage 80 g/ha
Method in brief: as §1

DIGSA [9] = test: Post-emergence herbicidal action against DIGSA; format: in vivo, Digitaria sanguinalis; conditions: Digitaria sanguinalis, 504 h
Method in brief: as §2

DIGSA [10] = test: Pre-emergence herbicidal action against DIGSA; format: in vivo, Digitaria sanguinalis; conditions: Digitaria sanguinalis, 504 h; for pest or weed control at 20 g/ha: dosage 20 g/ha; for pest or weed control at 80 g/ha: dosage 80 g/ha
Method in brief: as §1

ALOMY [11] = test: Pre-emergence herbicidal action against ALOMY; format: in vivo, Alopecurus myosuroides; conditions: Alopecurus myosuroides, 504 h; 80 g/ha, pre-emergence, scored visually after 3 weeks vs untreated controls (100% = plants have died, 0% = like control plants)
Method in brief: as §1

VERPE [12] = test: Pre-emergence herbicidal action against VERPE; format: in vivo, Veronica persica; conditions: Veronica persica, 504 h, dosage 80 g/ha
Method in brief: as §1

PHBPU [13] = test: Post-emergence herbicidal action against PHBPU; format: in vivo, Pharbitis purpurea; conditions: Ipomoea purpurea, 504 h, dosage 20 g/ha
Method in brief: as §2

POLCO = test: Pre-emergence herbicidal action against POLCO; format: in vivo, Polygonum convolvulus; conditions: Fallopia convolvulus, 504 h, dosage 80 g/ha
Method in brief: as §1

ECHCG [14] = test: Post-emergence herbicidal action against ECHCG; format: in vivo, Echinochloa crus-galli; conditions: Echinochloa crus-galli, 504 h; for pest or weed control at 20 g/ha: dosage 20 g/ha
Method in brief: as §2

AMARE [15] = test: Pre-emergence herbicidal action against AMARE; format: in vivo, Amaranthus retroflexus; conditions: Amaranthus retroflexus, 504 h, scored visually after 3 weeks vs untreated controls, 100% = plants have died, 0% = like control plants
Method in brief: as §1

SETVI [16] = test: Pre-emergence herbicidal action against SETVI; format: in vivo, Setaria viridis; conditions: Setaria viridis, 504 h; for pest or weed control at 80 g/ha: dosage 80 g/ha
Method in brief: as §1

MATIN [17] = test: Post-emergence herbicidal action against MATIN; format: in vivo, Matricaria inodora; conditions: Tripleurospermum inodorum, 504 h; for pest or weed control at 20 g/ha: dosage 20 g/ha
Method in brief: as §2

AVEFA = test: Pre-emergence herbicidal action against AVEFA; format: in vivo, Avena fatua; conditions: Avena fatua, 504 h; 80 g/ha, pre-emergence
Method in brief: as §1

ABUTH [18] = test: Post-emergence herbicidal action against ABUTH; format: in vivo, Abutilon theophrasti; conditions: Abutilon theophrasti, 504 h, visual assessment about 3 weeks after treatment vs untreated controls
Method in brief: as §2

VIOTR [19] = test: Post-emergence herbicidal action against VIOTR; format: in vivo, Viola tricolor; conditions: Viola tricolor, 504 h
Method in brief: as §2

VERPE [20] = test: Post-emergence herbicidal action against VERPE; format: in vivo, Veronica persica; conditions: Veronica persica, 504 h
Method in brief: as §2

For Cn1nnnc1NC(=O)c1ccc(C(F)F)c(C(=O)NCC(F)(F)F)c1Br [Example 1-229], the pest or weed control at 20 g/ha (MATIN [1]) was 100%, the pest or weed control at 80 g/ha (MATIN [1]) was 100% and the pest or weed control at 5 g/ha (SETVI [2]) was 80%. The pest or weed control at 20 g/ha (SETVI [2]) was 90%, the pest or weed control at 80 g/ha (ECHCG [3]) was 80% and the pest or weed control at 80 g/ha (ABUTH [4]) was 100%. For the same compound, the pest or weed control at 20 g/ha (ABUTH [4]) was 90%, the pest or weed control at 20 g/ha (AMARE [5]) was 90% and the pest or weed control at 20 g/ha (ALOMY [6]) was 80%. For the same compound, the pest or weed control at 80 g/ha (VIOTR [7]) was 100%, the pest or weed control at 80 g/ha (PHBPU [8]) was 90% and the pest or weed control at 5 g/ha (DIGSA [9]; 5 g/ha) was 90%. It also gave a pest or weed control at 20 g/ha (DIGSA [9]) of 90%, a pest or weed control at 20 g/ha (DIGSA [10]) of 100% and a pest or weed control at 80 g/ha (DIGSA [10]) of 100%. For the same compound, the pest or weed control at 80 g/ha (ALOMY [11]) was 90%, the pest or weed control at 80 g/ha (VERPE [12]) was 100% and the pest or weed control at 20 g/ha (PHBPU [13]) was 80%. For the same compound, the pest or weed control at 80 g/ha (POLCO) was 80%, the pest or weed control at 5 g/ha (ECHCG [14]; dosage 5 g/ha) was 90% and the pest or weed control at 20 g/ha (ECHCG [14]) was 90%. For the same compound, the pest or weed control at 20 g/ha (AMARE [15]) was 100%, the pest or weed control at 80 g/ha (AMARE [15]) was 100% and the pest or weed control at 80 g/ha (SETVI [16]) was 100%. The pest or weed control at 20 g/ha (MATIN [17]) was 80% and the pest or weed control at 80 g/ha (AVEFA) was 80%.

With CNC(=O)c1c(C(F)F)ccc(C(=O)Nc2nnnn2C)c1C1CC1 [Example 1-304] the pest or weed control at 20 g/ha (MATIN [1]) was 90%, the pest or weed control at 80 g/ha (MATIN [1]) was 100% and the pest or weed control at 5 g/ha (SETVI [2]) was 90%. The pest or weed control at 20 g/ha (SETVI [2]) was 90%, the pest or weed control at 80 g/ha (ECHCG [3]) was 100% and the pest or weed control at 80 g/ha (ABUTH [4]) was 100%. For the same compound, the pest or weed control at 20 g/ha (ABUTH [4]) was 100%, the pest or weed control at 20 g/ha (AMARE [5]) was 90% and the pest or weed control at 5 g/ha (ABUTH [18]; dosage 5 g/ha) was 90%. The pest or weed control at 20 g/ha (ABUTH [18]; dosage 20 g/ha) was 90%, the pest or weed control at 20 g/ha (VIOTR [7]; dosage 20 g/ha) was 100% and the pest or weed control at 80 g/ha (VIOTR [7]) was 100%. It also gave a pest or weed control at 80 g/ha (PHBPU [8]) of 80%, a pest or weed control at 20 g/ha (DIGSA [9]) of 90% and a pest or weed control at 20 g/ha (DIGSA [10]) of 100%. The pest or weed control at 80 g/ha (DIGSA [10]) was 100%, the pest or weed control at 80 g/ha (VERPE [12]) was 100% and the pest or weed control at 5 g/ha (VIOTR [19]; 5 g/ha) was 80%. The pest or weed control at 20 g/ha (VIOTR [19]; 20 g/ha) was 90%, the pest or weed control at 80 g/ha (POLCO) was 80% and the pest or weed control at 20 g/ha (ECHCG [14]) was 90%. It also gave a pest or weed control at 20 g/ha (AMARE [15]) of 100%, a pest or weed control at 80 g/ha (AMARE [15]) of 100% and a pest or weed control at 20 g/ha (SETVI [16]; dosage 20 g/ha) of 90%. It also gave a pest or weed control at 80 g/ha (SETVI [16]) of 100%, a pest or weed control at 5 g/ha (VERPE [20]; 5 g/ha) of 80% and a pest or weed control at 20 g/ha (VERPE [20]; 20 g/ha) of 80%. For the same compound, the pest or weed control at 5 g/ha (MATIN [17]; dosage 5 g/ha) was 90% and the pest or weed control at 20 g/ha (MATIN [17]) was 90%.
